{"source": "patent US4935438A", "about": "“Dopamine-β-hydroxylase inhibitors” (SmithKline Beckman Corporation, priority 1987, dated 1990)", "key": {"[1]": {"system": "Spontaneously hypertensive rats", "assay": "mean arterial blood pressure in spontaneously hypertensive rats", "format": "in vivo, rat", "conditions": "50 mg/kg intraperitoneally, vs vehicle treated controls", "experimental": "Spontaneously hypertensive rats were treated with 2-(carboxymethylthio)-1-(3,5-difluorobenzyl)imidazole at a dose of 50 mg/kg intraperitoneally, and mean arterial blood pressure was monitored for four hours using an indwelling cannula in the femoral artery. […] The maximal blood pressure reduction was approximately 43 mmHg."}, "[2]": {"target": "T1, DBH (Homo sapiens, UniProt P09172)", "T1 sequence (P09172 1-617)": "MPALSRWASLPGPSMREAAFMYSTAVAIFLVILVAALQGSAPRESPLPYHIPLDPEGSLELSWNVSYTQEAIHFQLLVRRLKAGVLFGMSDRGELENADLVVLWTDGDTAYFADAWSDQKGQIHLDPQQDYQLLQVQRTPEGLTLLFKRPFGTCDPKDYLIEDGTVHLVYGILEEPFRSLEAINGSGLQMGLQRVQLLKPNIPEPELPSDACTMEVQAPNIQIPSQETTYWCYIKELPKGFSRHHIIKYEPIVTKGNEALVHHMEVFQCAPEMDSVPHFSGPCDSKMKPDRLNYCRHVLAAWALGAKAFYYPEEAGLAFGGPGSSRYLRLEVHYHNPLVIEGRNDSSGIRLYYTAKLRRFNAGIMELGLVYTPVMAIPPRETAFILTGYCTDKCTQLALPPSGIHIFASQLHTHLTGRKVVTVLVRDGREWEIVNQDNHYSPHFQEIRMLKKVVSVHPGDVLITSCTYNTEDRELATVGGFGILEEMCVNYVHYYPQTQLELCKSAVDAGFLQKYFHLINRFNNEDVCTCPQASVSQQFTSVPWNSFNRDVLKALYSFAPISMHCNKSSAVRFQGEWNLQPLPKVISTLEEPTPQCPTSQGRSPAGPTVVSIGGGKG", "conditions": "cited from earlier work; for DBH inhibition: literature report; for mode of DBH inhibition: literature"}}}
{"smiles": "O=C(O)CSc1nccn1Cc1cc(F)cc(F)c1", "note": "[2-(Carboxymethylthio)-1-(3,5-difluorobenzyl)imidazole]", "values": [{"measurement": "maximal blood pressure reduction", "setting": "[1]; monitored for four hours", "result": "approximately 43 mmHg"}, {"measurement": "time blood pressure remained significantly reduced", "setting": "[1]; monitored for four hours", "result": 4, "unit": "h"}, {"measurement": "time to significant blood pressure reductions following treatment", "setting": "[1]", "result": "≤ 30", "unit": "min"}]}
{"smiles": "O=C(O)c1ccc(CCC(Br)CBr)cn1", "note": "(stereo not drawn) [5-(3,4-dibromobutyl)picolinic acid]", "values": [{"measurement": "DBH inhibition", "setting": "[2]", "result": "DBH inhibitors"}]}
{"smiles": "O=C(O)c1ccc(CCCCCl)cn1", "note": "[5-(4-chlorobutyl) picolinic acid]", "values": [{"measurement": "DBH inhibition", "setting": "[2]", "result": "inhibit DBH"}]}
{"smiles": "CN(C)C(=S)SCc1ccc(C(=O)O)nc1", "note": "[5-(dimethyldithiocarbamoylmethyl)picolinic acid]", "values": [{"measurement": "DBH inhibition", "setting": "[2]", "result": "DBH inhibitors"}]}
{"smiles": "NOCc1ccccc1", "note": "[Benzyloxyamine]", "values": [{"measurement": "mode of DBH inhibition", "setting": "[2]", "result": "apparently act as competitive inhibitors"}]}
{"smiles": "CCCCc1ccc(C(N)=O)nc1", "note": "[Bupicomide, 5(n-butyl)picolinamine]", "values": [{"measurement": "DBH inhibition", "setting": "[2]", "result": "DBH inhibitor"}]}
{"smiles": "NNCc1ccccc1", "note": "[benzylhydrazine]", "values": [{"measurement": "mode of DBH inhibition", "setting": "[2]", "result": "apparently act as competitive inhibitors"}]}
